Common to all, as to assay type: in vivo, rat
Data set [1] relates to Parkinson's disease model rats. The data set can be described thus: Levodopa-induced striatal dopamine release and rotational behavior, brain microdialysis in Parkinson's disease model rats. The following applies: for rotational behavior of the rats: 3 and 10 mg/kg i.p. The method, then: For preparing Parkinson's disease model rats by unilateral nigrostriatal dopamine nerve destruction, Crl: CD (SD) male rats supplied by Charles River Japan (8 weeks old at start of test) were used. About 30 minutes before injection of 6-hydroxydopamine, the norepinephrine reuptake inhibitor desipramine (25 mg/kg) was intraperitoneally administered, then the rat head was fixed to a brain stereotaxic apparatus under anesthesia by intraperitoneal administration of pentobarbital (40 mg/kg). 6-hydroxydopamine (total amount 8 μg/4 μL) including ascorbic acid was dissolved in physiological saline, then was injected at two locations of the right medial forebrain bundle (at 1.8 mm posterior to the bregma, 2.0 mm right-lateral to the median line and 8.3 mm ventral to the surface of the skill and 4.5 mm to the rear from the bregma, 1.4 mm to the right from the midline, and a depth of 8.5 mm from the cranium) through a microinjection syringe at a flow rate of 1.0 μL/min over 4 minutes, then was allowed to stand for 5 minutes. To confirm the success of dopamine nerve destruction after about 3 weeks from the above surgery, the rotational behavior of the rats after subcutaneous administration of the dopamine receptor agonist apomorphine (0.05 mg/kg) was measured using a rotational behavior-measuring equipment (Rotameter 6ch System, Muromachi Kikai Co., Ltd.). Rats rotating over 100 times in the opposite direction to the injection in the one hour right after apomorphine administration were judged to have unilateral nigrastriatal dopamine nerve destruction and were used for the subsequent tests.
Furthermore, from about one week later, the rats were given repeated intraperitoneal administration of levodopa (25 mg/kg)+peripheral dopa-decarboxylase inhibitor benserazide (10 mg/kg) (hereinafter referred to as “repeated doses of levodopa”) (twice a day, from Monday to Friday) for 6 weeks.
For the brain microdialysis guide cannule insertion surgery, under anesthesia by pentobarbital (40 mg/kg intraperitoneal administration), the head of each rat was fixed on a brain stereotaxic apparatus, then a brain microdialysis guide cannule (Carnegie Medicin PC12 guide cannule) was inserted into the right striatum (0.5 mm in front of the bregma, 3.0 mm from the midline to the right, and 4.0 mm deep from the cranium) and dental cement was used to fix it to the rat skull. […] The obtained dialysate was immediately measured for dopamine concentration using a high performance liquid chromatography system with an electrochemical detector (LC-ECD). Further, every 30 minutes after levodopa administration, the number of rotations in 5 minutes to the side opposite to the 6-hydroxydopamine injection side was visually measured. […]

Data set [2] in a line: Rate of biological utilization of SUN N4057 in rats. The method, then: Note that the rate of biological utilization of SUN N4057 in the rats, with subcutaneous administration, was a good one of about 100%, but with intraperitoneal administration, was a low one of about 27%. Further, it became clear that this quickly was consumed peaking at 15 minutes after administration. For this reason, in intraperitoneal administration, a higher dosage was set than with subcutaneous administration.

In data set [3] the test system is Parkinson's disease model rats. The data set can be described thus: Inhibition of induction of hyperkinesia of the forelimbs. The procedure: By repeated doses of levodopa to Parkinson's disease model rats, hyperkinesia of the forelimbs (abnormal action similar to dyskinesia in clinical studies) was observed (see FIG. 3). Therefore, it was studied whether it is possible to inhibit the induction of hyperkinesia of the forelimbs by repeated dosage of the tested substance from the start along with the start of repeated doses of levodopa.
The tested substance was intraperitoneally administered about 20 minutes before levodopa administration.

Data set [4] relates to rats. The data set can be described thus: Forced swimming method (anti-depressive action). From the text:
For the test, Crl: CD(SD) male rats supplied by Charles River Japan were used (6 weeks old at start of test). For the forced swimming test, the method of the improved type reported by Lucki et al. (Lucki I., “The forced swimming test as a model for core and component behavioral effects of antidepressant drugs”, Behavioural Pharmacology, 1997, 8, p. 523-532; Cryan J. F. et al., “Assessing antidepressant activity in rodents: recent developments and future needs”, TRENDS in Pharmacological Sciences, 2002, 23, p. 238-245) was used. On day 1, each rat was placed in a cylinder filled with water (height 45 cm×diameter 30 cm, water depth 30 cm, water temperature 23° C., water depth set to depth by which back legs and tail of rat will not touch the bottom). The rat was taken out after 15 minutes. At this time, the immobility period (seconds) of minutes 10-15 (5 minutes) was recorded. Based on the results, the rats were assigned to five groups so that there would be no difference among the groups. On day 2, each rat was placed in a cylinder filled with water the same as day 1 and the immobility period (seconds), swimming behavior period (seconds), and climbing behavior period (seconds) of minutes 0-5 (5 minutes) were measured. Note that the immobility period was defined as the minimum extent of movement for the rat to hold its head above the water, the swimming behavior as the swimming behavior circling around the inside of the cylinder in the horizontal direction, and the climbing behavior as the climbing behavior moving the forelimbs in the vertical direction along the cylinder walls to try to climb them. The tested substance was intraperitoneally administered 15 minutes after the end of swimming on day 1, and 4 hours and 30 minutes before swimming on day 2. Further, for the amount of locomotor activity, a measuring system (shape 48.8×48.8×30 cm, vertical 8 fractions, horizontal 8 fractions, for total of 64 fractions, Biomedica) set in a blacked out soundproof box was used to record the amount of locomotor activity of the rats at minutes 0-15 (15 minutes). Note that the dosages and timings of administration of the tested substances were set in the same way as the forced swimming test and the substance were intraperitoneally administered 24 hours, 4 hours, and 30 minutes before measurement of the amount of locomotor activity.

Data set [5] has as its system rats. The data set can be described thus: Amount of locomotor activity. The following applies: 0.3, 1, and 3 mg/kg i.p.; minutes 0-15. From the text: For the test, Crl: CD(SD) male rats supplied by Charles River Japan were used (6 weeks old at start of test). For the forced swimming test, the method of the improved type reported by Lucki et al. (Lucki I., “The forced swimming test as a model for core and component behavioral effects of antidepressant drugs”, Behavioural Pharmacology, 1997, 8, p. 523-532; Cryan J. F. et al., “Assessing antidepressant activity in rodents: recent developments and future needs”, TRENDS in Pharmacological Sciences, 2002, 23, p. 238-245) was used. On day 1, each rat was placed in a cylinder filled with water (height 45 cm×diameter 30 cm, water depth 30 cm, water temperature 23° C., water depth set to depth by which back legs and tail of rat will not touch the bottom). The rat was taken out after 15 minutes. At this time, the immobility period (seconds) of minutes 10-15 (5 minutes) was recorded. Based on the results, the rats were assigned to five groups so that there would be no difference among the groups. On day 2, each rat was placed in a cylinder filled with water the same as day 1 and the immobility period (seconds), swimming behavior period (seconds), and climbing behavior period (seconds) of minutes 0-5 (5 minutes) were measured. […]

Each structure is given as a SMILES string. Counter-ions that a name gives are not always drawn.

Consider `O=C1c2ccccc2OC=C(Cl)N1CCCCN1CC=C(c2ccccn2)CC1` [SUN N4057, 3-chloro-4,5-dihydro-4-{4-[4-(2-pyridyl)-1,2,3,6-tetrahydropyridin-1-yl]butyl}-1,4-benzoxazepin-5-one.dihydrochloride-dihydrate], for which the “increase of the amount of striatal dopamine release due to levodopa” value in data set [1] (3 and 10 mg/kg i.p. 20 minutes before levodopa 25 mg/kg, week 6 of repeated levodopa) is recorded as “inhibitory action”. Also, in data set [1] (3 and 10 mg/kg i.p. before levodopa), the “peak time of the amount of dopamine release” value is on record as “delayed”. Further, the figures for the “rotational behavior of the rats” value in data set [1] (150 to 210 minutes after levodopa dosage) and in data set [1] (30 minutes after levodopa administration) were “increase” and “decreased”, respectively. Besides, the entries for the “rate of biological utilization” value in data set [2] (intraperitoneal administration) and in data set [2] (subcutaneous administration) were “about 27%” and “about 100%”, respectively. Further, in data set [2] (intraperitoneal administration), the “time of peak after administration” value was 15 min. Besides, the “hyperkinesia of the forelimbs compared with the results after the 3 week withdrawal period” value in data set [3] (3 mg/kg i.p. for 3 weeks) is recorded as “significant inhibitory effect”. The “appearance of hyperkinesia of the forelimbs” value in data set [3] (3 mg/kg i.p. for 3 weeks together with the start of repeated doses of levodopa) is recorded as “reduced”. The immobility period result in data set [4] (0.3, 1 and 3 mg/kg i.p., minutes 0-5 on day 2) is recorded as “significant shortening of the immobility period”. Besides, the swimming behavior period result in data set [4] (1, 3 mg/kg i.p.) is “significant increase”. Besides, in data set [5], the “amount of locomotor activity” value was “no significant change”.
